Results published in US12201632B2, “Levoketoconazole for treatment of congenital adrenal hyperplasia and primary aldosteronism” (Strongbridge Dublin Limited, priority 2018, dated 2025).
Read-outs that look alike come from different tables or passages of the source.

Key:
[1] = tested on: HAC15 cells; test: Cell number (DNA) of HAC15 cells; format: cell-based, Human; settings: HAC15, 1 or 3 days, with or without ACTH
Experimental: Human adrenocortical carcinoma HAC15 and mouse corticotroph AtT20 cells were used, purchased as a kind gift by Dr. W. Rainey, and obtained from Dr. J. Tooze (European Organization for Molecular Biology), respectively. Both cell lines were cultured in 75 cm^2 flasks at 37° C. in a humidified incubator (Greiner Bio-One, Alphen a/d Rijn, the Netherlands) at 5% CO2. Dulbecco's Modified Eagle Medium F12 containing 5% fetal calf serum was used for HAC15, whereas AtT20 cells were cultured in Dulbecco's minimal essential medium (DMEM) supplemented with 10% fetal calf serum. Both mediums were supplemented with L-glutamine (2 mmol/L) and penicillin (10^5 U/L). Short tandem repeat (str) profiling using a Powerplex Kit (Promega, Leiden, the Netherlands) of HAC15 and AtT20 gave results consistent with the ATCC database, confirming the identity of both cell lines. Medium and supplements were obtained from Invitrogen, Breda, the Netherlands. Once a week, cells were harvested with trypsin (0.05%)-EDTA (0.53 mM) and resuspended in culture medium. […]
(§1) As a measure of cell number, DNA concentrations were determined using the bisbenzimide fluorescent dye (Hoechst 33258, Sigma Aldrich), as previously described.

[2] = tested on: AtT20 cells; test: Cell number of corticotroph pituitary AtT20 cells; format: cell-based, mouse; settings: for IC50: AtT20, after 7 days, read-out: IC50 inhibition of cell number
Experimental: Human adrenocortical carcinoma HAC15 and mouse corticotroph AtT20 cells were used, purchased as a kind gift by Dr. W. Rainey, and obtained from Dr. J. Tooze (European Organization for Molecular Biology), respectively. Both cell lines were cultured in 75 cm^2 flasks at 37° C. in a humidified incubator (Greiner Bio-One, Alphen a/d Rijn, the Netherlands) at 5% CO2. Dulbecco's Modified Eagle Medium F12 containing 5% fetal calf serum was used for HAC15, whereas AtT20 cells were cultured in Dulbecco's minimal essential medium (DMEM) supplemented with 10% fetal calf serum. Both mediums were supplemented with L-glutamine (2 mmol/L) and penicillin (10^5 U/L). Short tandem repeat (str) profiling using a Powerplex Kit (Promega, Leiden, the Netherlands) of HAC15 and AtT20 gave results consistent with the ATCC database, confirming the identity of both cell lines. Medium and supplements were obtained from Invitrogen, Breda, the Netherlands. Once a week, cells were harvested with trypsin (0.05%)-EDTA (0.53 mM) and resuspended in culture medium. Levoketoconazole (COR-003) and racemic ketoconazole (both from Cortendo AB) were dissolved in absolute ethanol (EtOH), according to manufacturer's instructions, and stored at −20° C. at a stock concentration of 10^−2 μM. At the start of each experiment, both drugs were freshly prepared and diluted in EtOH in the correct concentrations. Synacten (synthetic ACTH, Novartis Pharma A.G.) stock concentration was stored at 4° C. and dissolved in culture medium at the day of use. The final concentrations of ACTH were chosen based on a dose-response curve in HAC15 cells and previously reported studies in the literature. For HAC15, 200,000 and 100,000 cells were plated in 0.5 ml medium in 24 well plates for experiments of 1 and 3 days, respectively. For AtT20, cell amounts were 100,000 and 30,000. One day after seeding the HAC15 cells, the medium was refreshed and cells were treated 1 or 3 days in quadruplicate with levoketoconazole or racemic ketoconazole (0.05-5 μM), with or without 10 nM ACTH. To study effects of both compounds on pituitary AtT20 cells, concentrations of 0.1 to 10 μM of both drugs were used. Controls were vehicle treated. […] All cell culture experiments were carried out at least twice.
as §1
Statistical analysis was performed using Graphpad Prism 6.0 (Graphpad Software, San Diego, CA). Non-linear regression curve fitting program was used to calculate the half maximal inhibitory concentrations (IC50) on cortisol production. Effects of both compounds on the steroid profile were measured as absolute change compared to control and compared using the Student's t-test. When assessing differences between effects of both compounds, the percentage change was evaluated and compared in order to correct for differences in the vehicle treated control cells. Values of P<0.05 were considered statistically significant and data are presented as mean SEM.

[3] = tested on: AtT20 cells; test: ACTH secretion corrected for cell amount in AtT20 cells; format: cell-based, mouse
Experimental: Human adrenocortical carcinoma HAC15 and mouse corticotroph AtT20 cells were used, purchased as a kind gift by Dr. W. Rainey, and obtained from Dr. J. Tooze (European Organization for Molecular Biology), respectively. Both cell lines were cultured in 75 cm^2 flasks at 37° C. in a humidified incubator (Greiner Bio-One, Alphen a/d Rijn, the Netherlands) at 5% CO2. Dulbecco's Modified Eagle Medium F12 containing 5% fetal calf serum was used for HAC15, whereas AtT20 cells were cultured in Dulbecco's minimal essential medium (DMEM) supplemented with 10% fetal calf serum. Both mediums were supplemented with L-glutamine (2 mmol/L) and penicillin (10^5 U/L). Short tandem repeat (str) profiling using a Powerplex Kit (Promega, Leiden, the Netherlands) of HAC15 and AtT20 gave results consistent with the ATCC database, confirming the identity of both cell lines. Medium and supplements were obtained from Invitrogen, Breda, the Netherlands. Once a week, cells were harvested with trypsin (0.05%)-EDTA (0.53 mM) and resuspended in culture medium. Levoketoconazole (COR-003) and racemic ketoconazole (both from Cortendo AB) were dissolved in absolute ethanol (EtOH), according to manufacturer's instructions, and stored at −20° C. at a stock concentration of […]. At the start of each experiment, both drugs were freshly prepared and diluted in EtOH in the correct concentrations. Synacten (synthetic ACTH, Novartis Pharma A.G.) stock concentration was stored at 4° C. and dissolved in culture medium at the day of use. The final concentrations of ACTH were chosen based on a dose-response curve in HAC15 cells and previously reported studies in the literature. For HAC15, 200,000 and 100,000 cells were plated in 0.5 ml medium in 24 well plates for experiments of 1 and 3 days, respectively. […]
At the end of the AtT20 and primary pituitary adenoma culture experiments, medium was collected and supplemented with 1% of the protease inhibitor Trasylol to prevent degradation of ACTH. ACTH was measured using a commercially available, nonisotopic automatic chemiluminescence system (DPC Immulite).

[4] = cited from earlier work
[5] = AtT20, after 3 and 7 days of treatment

For CC(=O)N1CCN(c2ccc(OC[C@@H]3CO[C@@](Cn4ccnc4)(c4ccc(Cl)cc4Cl)O3)cc2)CC1 (relative stereo) [levoketoconazole, 2S,4R cis-1-acetyl-4-[4-[[2-(2,4-dichlorophenyl)-2-(1H-imidazol-1-ylmethyl)-1,3-dioxolan-4-yl]methoxyl]phenyl]piperazine], the “effects on cell number” value [1] was “no effects”, the “effect on cell number” value [2, 5] was “inhibited cell number” and the “effect on cell number” value ([2]; AtT20, after 24 h of treatment) was “no effect”. For the same compound, the IC50 [2] was 1.05 µM, the “Maximal inhibition of ACTH secretion” value ([3]; AtT20, 7 days of treatment with 10 μM, corrected for cell amount) was 38% and the “ACTH secretion corrected for cell amount” value ([3]; AtT20, after 3 days of treatment) was “showed inhibition of ACTH secretion”. For the same compound, the “accumulation in a subject's body over repeated dosing” value [4] was “significantly less accumulation”.
For CC(=O)N1CCN(c2ccc(OCC3COC(Cn4ccnc4)(c4ccc(Cl)cc4Cl)O3)cc2)CC1 (racemic) [racemic ketoconazole, Ketoconazole], the “effects on cell number” value [1] was “no effects”, the “effect on cell number” value [2, 5] was “inhibited cell number” and the “effect on cell number” value ([2]; AtT20, after 24 h of treatment) was “no effect”. The IC50 ([2]; Mus musculus, 168 h) was 5.81 µM, the inhibition at 10 µM ([3]; Mus musculus, 168 h, AtT20, 7 days of treatment with 10 μM, corrected for cell amount, read-out: Maximal inhibition of ACTH secretion) was 34% and the “accumulation in a subject's body over repeated dosing” value [4] was “accumulate in a subject's body over repeated dosing”.
